This is an account of results in PubChem BioAssay AID1259407 (Chemical Carcinogenesis Research Information System (CCRIS), 2018).

SMILES strings stand for the structures. Activity calls are given as the source filed them. No rule for the calls is given here.

This series deals with CCRIS mutagenicity, Ames/micronucleus/aberration tests. The experiment in a line: CCRIS mutagenicity studies.
Setting [1] is: Test System: AMES SALMONELLA TYPHIMURIUM, Strain/Indicator: TA97, Metabolic Activation: HAMSTER, LIVER, S-9, AROCLOR 1254 (10%), Method: PREINCUBATION
The mark [2] stands for this setting: Test System: AMES SALMONELLA TYPHIMURIUM, Strain/Indicator: TA97, Metabolic Activation: NONE, Method: PREINCUBATION
Where [3] appears, read: Test System: AMES SALMONELLA TYPHIMURIUM, Strain/Indicator: TA97, Metabolic Activation: RAT, LIVER, S-9, AROCLOR 1254 (10%), Method: PREINCUBATION
Setting [4] is: Test System: AMES SALMONELLA TYPHIMURIUM, Strain/Indicator: TA98, Metabolic Activation: HAMSTER, LIVER, S-9, AROCLOR 1254 (10%), Method: PREINCUBATION
[5] abbreviates: Test System: AMES SALMONELLA TYPHIMURIUM, Strain/Indicator: TA98, Metabolic Activation: NONE, Method: PREINCUBATION
[6] abbreviates: Test System: AMES SALMONELLA TYPHIMURIUM, Strain/Indicator: TA98, Metabolic Activation: RAT, LIVER, S-9, AROCLOR 1254 (10%), Method: PREINCUBATION
Setting [7] is: Test System: AMES SALMONELLA TYPHIMURIUM, Strain/Indicator: TA100, Metabolic Activation: NONE, Method: PREINCUBATION
Where [8] appears, read: Test System: AMES SALMONELLA TYPHIMURIUM, Strain/Indicator: TA100, Metabolic Activation: RAT, LIVER, S-9, AROCLOR 1254 (10%), Method: PREINCUBATION
Setting [9] is: Test System: AMES SALMONELLA TYPHIMURIUM, Strain/Indicator: TA1537, Metabolic Activation: NONE, Method: PREINCUBATION
The mark [10] stands for this setting: Test System: AMES SALMONELLA TYPHIMURIUM, Strain/Indicator: TA1535, Metabolic Activation: NONE, Method: PREINCUBATION

As to `C1CCC(NC2CCCCC2)CC1`, the mutagenic call under setting [1] was “inactive; negative”; the mutagenic call under setting [2] is “inactive; negative”; the mutagenic call under setting [3] was “inactive; negative”; the mutagenic call under setting [4] is “inactive; negative”; the mutagenic call under setting [5] was “inactive; negative”; the mutagenic call (Test System: AMES SALMONELLA TYPHIMURIUM, Strain/Indicator: TA98, Metabolic Activation: RAT LIVER S-9, PHENOBARBITAL AND BETA-NAPHTHOFLAVONE, Method: PREINCUBATION) was “inactive; negative”. Besides, the mutagenic call was “inactive; negative” under setting [6]; “inactive; negative” under setting [7]; “inactive; negative” (Test System: AMES SALMONELLA TYPHIMURIUM, Strain/Indicator: TA100, Metabolic Activation: RAT LIVER S-9, PHENOBARBITAL AND BETA-NAPHTHOFLAVONE, Method: PREINCUBATION); “inactive; negative” under setting [8]; “inactive; negative” (Test System: AMES SALMONELLA TYPHIMURIUM, Strain/Indicator: TA1535, Metabolic Activation: RAT LIVER S-9, PHENOBARBITAL AND BETA-NAPHTHOFLAVONE, Method: PREINCUBATION); “inactive; negative” (Test System: AMES SALMONELLA TYPHIMURIUM, Strain/Indicator: TA1537, Metabolic Activation: HAMSTER, LIVER, S-9, AROCLOR 1254 (10%), Method: PREINCUBATION). Further, the mutagenic call is “inactive; negative” under setting [9]; “inactive; negative” (Test System: AMES SALMONELLA TYPHIMURIUM, Strain/Indicator: TA1537, Metabolic Activation: RAT LIVER S-9, PHENOBARBITAL AND BETA-NAPHTHOFLAVONE, Method: PREINCUBATION); “inactive; negative” (Test System: AMES SALMONELLA TYPHIMURIUM, Strain/Indicator: TA1537, Metabolic Activation: RAT, LIVER, S-9, AROCLOR 1254 (10%), Method: PREINCUBATION); “inactive; negative” (Test System: E.COLI, Strain/Indicator: WP2UVRA/PKM101, Metabolic Activation: NONE, Method: PREINCUBATION); “inactive; negative” (Test System: E.COLI, Strain/Indicator: WP2UVRA/PKM101, Metabolic Activation: RAT LIVER S-9, PHENOBARBITAL AND BETA-NAPHTHOFLAVONE, Method: PREINCUBATION).

Consider `O=C1NC(=O)C(Cl)=C1Cl`, for which the mutagenic call (Test System: AMES SALMONELLA TYPHIMURIUM, Strain/Indicator: TA100, Metabolic Activation: NONE, Method: STANDARD PLATE) is “active; positive”.

As to `CC1=C(N=O)CNc2c1nc1c(C)cccn21`, the mutagenic call is “active; positive” (Test System: AMES SALMONELLA TYPHIMURIUM, Strain/Indicator: TA98, Metabolic Activation: NONE, Method: STANDARD PLATE); “active; positive” (Test System: AMES SALMONELLA TYPHIMURIUM, Strain/Indicator: TA98, Metabolic Activation: RAT, LIVER, CYTOSOL, AROCLOR 1254, Method: STANDARD PLATE); “active; positive” (Test System: AMES SALMONELLA TYPHIMURIUM, Strain/Indicator: TA98, Metabolic Activation: RAT, LIVER, MICROSOMES, AROCLOR 1254, Method: STANDARD PLATE); “active; positive” (Test System: AMES SALMONELLA TYPHIMURIUM, Strain/Indicator: TA98, Metabolic Activation: RAT, LIVER, S-9, AROCLOR 1254, Method: STANDARD PLATE).

With `O=C(OCC1CO1)c1cccc(C(=O)OCC2CO2)c1` (stereo not given), the mutagenic call under setting [1] is “inactive; negative”; the mutagenic call under setting [2] is “active; positive”; the mutagenic call under setting [3] was “inactive; negative”; the mutagenic call under setting [4] is “inactive; negative”; the mutagenic call under setting [5] is “inactive; negative”; the mutagenic call under setting [6] was “inactive; negative”. Further, the mutagenic call by setting is: (Test System: AMES SALMONELLA TYPHIMURIUM, Strain/Indicator: TA100, Metabolic Activation: HAMSTER, LIVER, S-9, AROCLOR 1254 (10%), Method: PREINCUBATION) “active; positive”; under setting [7], “active; positive”; under setting [8], “active; positive”; (Test System: AMES SALMONELLA TYPHIMURIUM, Strain/Indicator: TA1535, Metabolic Activation: HAMSTER, LIVER, S-9, AROCLOR 1254 (10%), Method: PREINCUBATION) “active; positive”; under setting [10], “active; positive”; (Test System: AMES SALMONELLA TYPHIMURIUM, Strain/Indicator: TA1535, Metabolic Activation: RAT, LIVER, S-9, AROCLOR 1254 (10%), Method: PREINCUBATION) “active; positive”.

For the molecule `O=C1NCNC(=O)N1`, the mutagenic call runs as follows: (Test System: AMES SALMONELLA TYPHIMURIUM, Strain/Indicator: TA98, Metabolic Activation: MAIZE SEEDLING, S-14, Method: PREINCUBATION) “active; positive”; (Test System: AMES SALMONELLA TYPHIMURIUM, Strain/Indicator: TA98, Metabolic Activation: MOUSE, LIVER, S-9, Method: PREINCUBATION) “active; positive”; under setting [5], “inactive; negative”; (Test System: AMES SALMONELLA TYPHIMURIUM, Strain/Indicator: TA100, Metabolic Activation: MAIZE SEEDLING, S-14, Method: PREINCUBATION) “active; positive”; (Test System: AMES SALMONELLA TYPHIMURIUM, Strain/Indicator: TA100, Metabolic Activation: MOUSE, LIVER, S-9, Method: PREINCUBATION) “inactive; negative”; under setting [7], “inactive; negative”. Moreover, the mutagenic call reads like this: under setting [10], “inactive; negative”; under setting [9], “inactive; negative”; (Test System: AMES SALMONELLA TYPHIMURIUM, Strain/Indicator: TA1538, Metabolic Activation: NONE, Method: PREINCUBATION) “inactive; negative”.

For `CC(=O)OC(C)(C)C`, the mutagenic call by setting is: under setting [5], “inactive; negative”; (Test System: AMES SALMONELLA TYPHIMURIUM, Strain/Indicator: TA98, Metabolic Activation: RAT, LIVER, S-9, AROCLOR 1254, Method: PREINCUBATION) “inactive; negative”; under setting [7], “inactive; negative”; (Test System: AMES SALMONELLA TYPHIMURIUM, Strain/Indicator: TA100, Metabolic Activation: RAT, LIVER, S-9, AROCLOR 1254, Method: PREINCUBATION) “inactive; negative”; (Test System: AMES SALMONELLA TYPHIMURIUM, Strain/Indicator: TA102, Metabolic Activation: NONE, Method: PREINCUBATION) “inactive; negative”; (Test System: AMES SALMONELLA TYPHIMURIUM, Strain/Indicator: TA102, Metabolic Activation: RAT, LIVER, S-9, AROCLOR 1254, Method: PREINCUBATION) “inactive; negative”. The mutagenic call is, setting by setting: under setting [10], “inactive; negative”; (Test System: AMES SALMONELLA TYPHIMURIUM, Strain/Indicator: TA1535, Metabolic Activation: RAT, LIVER, S-9, AROCLOR 1254, Method: PREINCUBATION) “inactive; negative”; under setting [9], “inactive; negative”; (Test System: AMES SALMONELLA TYPHIMURIUM, Strain/Indicator: TA1537, Metabolic Activation: RAT, LIVER, S-9, AROCLOR 1254, Method: PREINCUBATION) “inactive; negative”; (Test System: E. COLI, Strain/Indicator: WP2UVRA/PKM, Metabolic Activation: NONE, Method: PREINCUBATION) “inactive; negative”; (Test System: E. COLI, Strain/Indicator: WP2UVRA/PKM, Metabolic Activation: RAT, LIVER, S-9, AROCLOR 1254, Method: PREINCUBATION) “inactive; negative”.
